Converted amounts (≈) assume the structure as drawn.
Legend:
Experiment in all cases: In vitro antibacterial evaluation: minimum inhibitory concentration (MIC), broth dilution method
Format in all cases: cell-based
Enterococcus sp. = conditions: 18 hours at 35° C.
In short: (§1)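 Test strains, among them recent clinical isolates carrying methicillin, penicillin and/or vancomycin resistance, were inoculated at 5×10^5 CFU/mL. A broth dilution series spanning 64-0.06 μg/mL in Muller-Hinton II […] (NCCLS M7-A2) defined the MIC as the lowest growth-inhibiting concentration.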

Escherichia coli = conditions: 18 hours at 35° C.
In short: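 First, organisms are seeded at 5×10^5 CFU/mL into Muller-Hinton II […]. Next, antibiotic is applied across 64-0.06 μg/mL by broth dilution (NCCLS M7-A2). Finally, the lowest inhibitory concentration is recorded as MIC.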

Staphylococcus sp. = tested on: Staphylococcus sp.
In short: as §1

Streptococcus sp. = conditions: 18 hours at 35° C.
In short: as §1

[1] = broth dilution, inoculum 5×10^5 CFU/mL

- MIC Enterococcus avium (GC 4558) (Enterococcus sp.; Enterococcus avium (GC 4558)): 2 µg/mL (≈ 1.42 µM)
- MIC Enterococcus faecalis (ATCC 29212) (Enterococcus sp.; Enterococcus faecalis (ATCC 29212)): 2 µg/mL (≈ 1.42 µM)
- MIC Enterococcus faecalis (GC 2242) (Enterococcus sp.; Enterococcus faecalis (GC 2242)): 1 µg/mL (≈ 0.708 µM)
- MIC Enterococcus faecalis (GC 2691) (Enterococcus sp.; Enterococcus faecalis (GC 2691)): 2 µg/mL (≈ 1.42 µM)
- MIC Enterococcus faecalis (GC 3059) (Enterococcus sp.; Enterococcus faecalis (GC 3059)): 1 µg/mL (≈ 0.708 µM)
- MIC Enterococcus faecalis (GC 4552) (Enterococcus sp.; Enterococcus faecalis (GC 4552)): 1 µg/mL (≈ 0.708 µM)
- MIC Enterococcus faecalis (GC 4553) (Enterococcus sp.; Enterococcus faecalis (GC 4553)): 2 µg/mL (≈ 1.42 µM)
- MIC Enterococcus faecalis (GC 4554) (Enterococcus sp.; Enterococcus faecalis (GC 4554)): 1 µg/mL (≈ 0.708 µM)
- MIC Enterococcus faecalis (GC 6189) (Enterococcus sp.; Enterococcus faecalis (GC 6189)): 0.5 µg/mL (≈ 0.354 µM)
- MIC Enterococcus faecium (GC 2243) (Enterococcus sp.; Enterococcus faecium (GC 2243)): 1 µg/mL (≈ 0.708 µM)
- MIC Enterococcus faecium (GC 4556) (Enterococcus sp.; Enterococcus faecium (GC 4556)): 1 µg/mL (≈ 0.708 µM)
- MIC Enterococcus faecium (GC 4557) (Enterococcus sp.; Enterococcus faecium (GC 4557)): 2 µg/mL (≈ 1.42 µM)
- MIC Enterococcus avium (GC 4558) (Enterococcus sp.; [1]): 2 µg/mL (≈ 1.42 µM)
- MIC Enterococcus faecalis (ATCC 29212) (Enterococcus sp.; [1]): 2 µg/mL (≈ 1.42 µM)
- MIC Enterococcus faecalis (GC 2242) (Enterococcus sp.; [1]): 1 µg/mL (≈ 0.708 µM)
- MIC Enterococcus faecalis (GC 2691) (Enterococcus sp.; [1]): 2 µg/mL (≈ 1.42 µM)
- MIC Enterococcus faecalis (GC 3059) (Enterococcus sp.; [1]): 1 µg/mL (≈ 0.708 µM)
- MIC Enterococcus faecalis (GC 4552) (Enterococcus sp.; [1]): 1 µg/mL (≈ 0.708 µM)
- MIC Enterococcus faecalis (GC 4553) (Enterococcus sp.; [1]): 2 µg/mL (≈ 1.42 µM)
- MIC Enterococcus faecalis (GC 4554) (Enterococcus sp.; [1]): 1 µg/mL (≈ 0.708 µM)
- MIC Enterococcus faecalis (GC 6189) (Enterococcus sp.; [1]): 0.5 µg/mL (≈ 0.354 µM)
- MIC Enterococcus faecium (GC 2243) (Enterococcus sp.; [1]): 1 µg/mL (≈ 0.708 µM)
- MIC Enterococcus faecium (GC 4556) (Enterococcus sp.; [1]): 1 µg/mL (≈ 0.708 µM)
- MIC Enterococcus faecium (GC 4557) (Enterococcus sp.; [1]): 2 µg/mL (≈ 1.42 µM)
- MIC Escherichia coli (GC 4559) (Escherichia coli; Escherichia coli (GC 4559)): 32 µg/mL (≈ 22.7 µM)
- MIC Escherichia coli (GC 4560) (Escherichia coli; Escherichia coli (GC 4560)): 2 µg/mL (≈ 1.42 µM)
- MIC Staphylococcus aureus (ATCC 29213) (Staphylococcus sp.; strain ATCC 29213): 0.5 µg/mL (≈ 0.354 µM)
- MIC Staphylococcus aureus (GC 1131) (Staphylococcus sp.; strain GC 1131): 1 µg/mL (≈ 0.708 µM)
- MIC Staphylococcus aureus (GC 3051) (Staphylococcus sp.; strain GC 3051): 1 µg/mL (≈ 0.708 µM)
- MIC Staphylococcus aureus (GC 3053) (Staphylococcus sp.; strain GC 3053): 1 µg/mL (≈ 0.708 µM)
- MIC Staphylococcus aureus (GC 4541) (Staphylococcus sp.; strain GC 4541): 0.5 µg/mL (≈ 0.354 µM)
- MIC Staphylococcus aureus (GC 4542) (Staphylococcus sp.; strain GC 4542): 0.5 µg/mL (≈ 0.354 µM)
- MIC Staphylococcus aureus-SMITH (GC 4543) (Staphylococcus sp.; strain GC 4543): 0.5 µg/mL (≈ 0.354 µM)
- MIC Staphylococcus aureus (GC 4544) (Staphylococcus sp.; strain GC 4544): 2 µg/mL (≈ 1.42 µM)
- MIC Staphylococcus aureus (GC 4545) (Staphylococcus sp.; strain GC 4545): 1 µg/mL (≈ 0.708 µM)
- MIC Coagulase Negative Staphylococcus (GC 4547) (Staphylococcus sp.; strain GC 4547): 1 µg/mL (≈ 0.708 µM)
- MIC Coagulase Negative Staphylococcus (GC 4548) (Staphylococcus sp.; strain GC 4548): 0.5 µg/mL (≈ 0.354 µM)
- MIC Coagulase Negative Staphylococcus (GC 4549) (Staphylococcus sp.; strain GC 4549): 0.5 µg/mL (≈ 0.354 µM)
- MIC Coagulase Negative Staphylococcus (GC 4551) (Staphylococcus sp.; strain GC 4551): 1 µg/mL (≈ 0.708 µM)
- MIC Coagulase Negative Staphylococcus (GC 6257) (Staphylococcus sp.; strain GC 6257): 0.5 µg/mL (≈ 0.354 µM)
- MIC Streptococcus agalactiae (GC 4564) (Streptococcus sp.; Streptococcus agalactiae (GC 4564)): <0.06 µg/mL
- MIC Streptococcus pneumoniae (ATCC 6301) (Streptococcus sp.; Streptococcus pneumoniae (ATCC 6301)): 0.25 µg/mL (≈ 0.177 µM)
- MIC Streptococcus pneumoniae (GC 1894) (Streptococcus sp.; Streptococcus pneumoniae (GC 1894)): 0.12 µg/mL (≈ 0.085 µM)
- MIC Streptococcus pneumoniae (GC 4565) (Streptococcus sp.; Streptococcus pneumoniae (GC 4565)): <0.06 µg/mL
- MIC Streptococcus pyogenes (GC 4563) (Streptococcus sp.; Streptococcus pyogenes (GC 4563)): <0.06 µg/mL
- MIC Streptococcus agalactiae (GC 4564) (Streptococcus sp.; [1]): <0.06 µg/mL
- MIC Streptococcus pneumoniae (ATCC 6301) (Streptococcus sp.; [1]): 0.25 µg/mL (≈ 0.177 µM)
- MIC Streptococcus pneumoniae (GC 1894) (Streptococcus sp.; [1]): 0.12 µg/mL (≈ 0.085 µM)
- MIC Streptococcus pneumoniae (GC 4565) (Streptococcus sp.; [1]): <0.06 µg/mL
- MIC Streptococcus pyogenes (GC 4563) (Streptococcus sp.; [1]): <0.06 µg/mL
SMILES: CCCC(C)C1OCC2OC(OC3C(CO)OC(Oc4ccc(CC5NC(=O)C(C(C)c6ccc(Cl)cc6)NC(=O)CNC(=O)C(CO)NC(=O)C(C(O)C6CNC(=N)N6C6OC(CO)C(O)C(O)C6O)NC(=O)C(C(O)C6CNC(=N)N6)NC5=O)cc4)C(O)C3O)C(O)C(O)C2O1 (stereo not drawn) [Example 194, Cyclo[glycyl-4-chloro-β-methylphenylalanyl-O-[4-O-[4,6-O-(2-methylpentylidene)hexopyranosyl]hexopyranosyl]tyrosyl-3-(2-iminoimidazolidin-4-yl)seryl-3-(3-hexopyranosyl-2-iminoimidazolidin-4-yl)serylseryl]]
- MIC Staphylococcus haemolyticus (GC 4546) (Staphylococcus sp.; strain GC 4546): 0.5 µg/mL (≈ 0.354 µM)

From patent publication US8247211B2, “Glycopeptide antibiotics” (American Cyanamid Company, priority 2001, dated 2012)
